From patent US20200407717A1, “METHODS OF MODULATING ANTISENSE ACTIVITY” (Ionis Pharmaceuticals, Inc., priority 2018, published 2020)
In the oligonucleotide strings, read from the 5' end, every base follows the letter of its sugar. An asterisk marks phosphorothioate; unmarked linkages are phosphodiester. Other units and linkages are bracketed, terminal groups are in braces. A string of capitals states the bases alone. e = 2'-O-(2-methoxyethyl) (MOE); {FITC} = fluorescein label; [5mC] = 5-methylcytosine; d = 2'-deoxy (DNA)

Columns and labels:
Purified recombinant EGF [1] = biological target: T1, Purified recombinant EGF (Homo sapiens, UniProt P01133); assay: Membrane binding assay, EGF
T1 construct: purchased ThermoFisher PHG0311L
T1 sequence (P01133 971-1023 limits assumed): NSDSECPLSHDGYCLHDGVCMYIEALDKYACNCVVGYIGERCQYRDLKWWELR
Procedure: (§1) A membrane binding assay was performed to test the binding affinities of modified oligonucleotides to EGF and EGFR. Purified recombinant EGF (PHG0311L, ThermoFisher) or EGFR protein (PV3872, ThermoFisher) were incubated with FITC-labeled phosphorothioate oligonucleotide, compound no. 256903 or FITC-labeled phosphate oligonucleotide, PO-ASO, in binding buffer (20 mM Tris-HCl, pH 7.5, 150 mM NaCl, 1 mM DTT, 10% glycerol) for 1 hr at 37° C. Each reaction contained purified EGF at 3 nM to 3 μM or recombinant EGFR at 5 nM to 150 nM. Samples were loaded onto a hyband ECL nitrocellulose membrane (GE Healthcare) and soaked in wash buffer (20 mM Tris-HcCl, pH 7.5, 250 mM NaCl). Protein-bound ASOs were transferred to the membrane by applying a vaccum in a 96-well Bio-Rad Bio-Dot apparatus. After washing, membranes were air-dried and scanned using a phoshoimager (GE Healthcare). Kds were calculated for compound no. 256903 using Prism. The results below represent an average of three replicate experiments. […] In contrast, compound no. 256903 bound to both EGF and EGFR, with a higher affinity for EGFR than for EGF.

EGFR [2] = biological target: T2, EGFR (Homo sapiens, UniProt P00533); assay: Membrane binding assay, EGFR; set-up: purchased ThermoFisher PV3872
Procedure: as §1

EGFR [3] = biological target: T2, EGFR; assay: Membrane binding assay, EGFR; set-up: purchased ThermoFisher PV3872; settings: EGFR 2.3 nM (head prints [EGF])
Purified recombinant EGF [4] = biological target: T1, Purified recombinant EGF; assay: Membrane binding assay, EGF; settings: [EGF] 2.5 nM

FITC-^mCesTesGes^mCesTesAdsGds^mCds^mCdsTds^mCdsTdsGdsGdsAdsTesTesTesGesAe (antisense {FITC}-e[5mC]*eT*eG*e[5mC]*eT*dA*dG*d[5mC]*d[5mC]*dT*d[5mC]*dT*dG*dG*dA*eT*eT*eT*eG*eA) [compound 256903]
interaction with EGF (Purified recombinant EGF [1]; EGF 3 nM to 3 μM): bound
Relative intensity (%) (Purified recombinant EGF [1]; [EGF] 5 nM): 10.2%
Relative intensity (%) (Purified recombinant EGF [1]; [EGF] 10 nM): 12.0%
Relative intensity (%) (Purified recombinant EGF [1]; [EGF] 20.9 nM): 12.8%
Relative intensity (%) (Purified recombinant EGF [1]; [EGF] 41.9 nM): 13.7%
Relative intensity (%) (Purified recombinant EGF [1]; [EGF] 93.8 nM): 15.7%
Relative intensity (%) (Purified recombinant EGF [1]; [EGF] 187.5 nM): 17.0%
Relative intensity (%) (Purified recombinant EGF [1]; [EGF] 375 nM): 22.3%
Relative intensity (%) (Purified recombinant EGF [1]; [EGF] 750 nM): 72.3%
Relative intensity (%) (Purified recombinant EGF [1]; [EGF] 1500 nM): 95.2%
Relative intensity (%) (Purified recombinant EGF [1]; [EGF] 3000 nM): 97.3%
Kd (Purified recombinant EGF [1]; binding affinity for EGF, average of three replicate experiments): 0.57 ± 0.17 µM
Relative intensity (%) (EGFR [2]; EGFR 4.7 nM (head prints [EGF])): 9.0%
interaction with EGFR (EGFR [2]; EGFR 5 nM to 150 nM): bound
Relative intensity (%) (EGFR [2]; EGFR 9.4 nM (head prints [EGF])): 9.0%
Relative intensity (%) (EGFR [2]; EGFR 18.8 nM (head prints [EGF])): 10.3%
Relative intensity (%) (EGFR [2]; EGFR 37.5 nM (head prints [EGF])): 40.5%
Relative intensity (%) (EGFR [2]; EGFR 75 nM (head prints [EGF])): 80.0%
Relative intensity (%) (EGFR [2]; EGFR 150 nM (head prints [EGF])): 102.7%
Kd (EGFR [2]; binding affinity for EGFR, average of three replicate experiments): 0.0515 ± 0.0093 µM
Relative intensity (%) (EGFR [3]): 7.0%
Relative intensity (%) (Purified recombinant EGF [4]): 8.8%
